According to patent US20130338092A1, “COMPOUNDS AND METHODS FOR TARGETING LEUKEMIC STEM CELLS” (The Broad Institute, Inc., priority 2011, published 2013):
“Also recorded” adds a separate entry of the source. Read-outs that look alike come from different tables or passages of the source.

Experiments:
[1] = test system: LSC-enriched leukemia cells on OP9 stromal cells; test: Leukemia coculture assay on OP9 stroma (primary screen); type: cell-based, murine; settings: 5 μM
Protocol: Plate covers were re-added and the plates were placed in the incubator for 24 hours. The plate covers were removed, 100 nl of compound in dimethyl sulfoxide (DMSO) (final concentration 5 μM in 0.2% DMSO) was added to the appropriate wells using a CyBi-Well Vario (CyBio) the plate covers were replaced, and the plates were placed in the incubator for 3 days. Plate covers were removed, the media was aspirated from each plate, 50 μl of fresh media (50/50 coculture and OP9 conditioned media mix) was added and another 100 nl of compound was added to the appropriate wells. The plates were re-covered and placed in the incubator for 2 days. At this point, the plates were imaged using a IX Microscope (Molecular Devices) at 10× magnification at 9 sites per well in both the GFP and dsRed channels. Images were stored on the Broad Institute server for future analysis. […]
Briefly, primary dsRed^+ leukemia cells enriched for LSCs were isolated by flow cytometry and cocultured on GFP^+ OP9 stromal monolayers, treated with 5 μM of compound (to a final concentration of 0.2% DMSO), and imaged 5 days later by automated microscopy (dsRed channel for leukemia, and GFP channel for stroma) (FIG. 1). The stored images were analyzed for levels of cobblestoning as described herein.

[2] = test system: LSC-enriched leukemia cells (MLL-AF9); test: Leukemia coculture assay on primary MSC stroma (cobblestoning readout); type: cell-based, murine; settings: for IC50: Mus musculus; for leukemia-selective activity in coculture vs normal HSPCs: primary MSC stroma
Protocol: Whole bone marrow were harvested from C57/B16 actin-dsRed mice (006051, Jackson Labs), subjected to red blood cell lysis (Qiagen), then granulocyte-macrophage progenitors (GMPs) were isolated by Fluorescence-activated cell sorting (FACsAria, Becton Dickinson). GMPs were spinfected twice (2500 rpm, 90 min, 37 C) in the presence of mIL3 (10 ng/ml, Peprotech), mIL6 (10 ng/ml, Peprotech), and mSCF (10 ng/ml, Peprotech) with pMSCV-MLL-AF9-Neo virus then transplanted into lethally irradiated C57/B16 recipients. After disease onset, the spleens were harvested and transplanted into sublethally irradiated secondary recipients. Subsequent transplantation of bulk spleen cells from leukemic secondary mice was repeated twice to generate leukemic GMPs from quaternary transplant leukemic mouse bone marrow.
Long bones and hips from moribund leukemic mice were harvested, cleaned, crushed and sequentially passed through 100 and 70 μM filters (Falcon). The cells were RBC lysed (Qiagen) and stained in PBS+2% FBS (Omega). Antibodies included lineage markers CD4, CD8, Gr1, Mac1, IL-7R, and Ter119 (Caltag), c-kit (17-1172-83, eBioscience), Sca-1 (11-5981-82, eBioscience), CD34 (11-0341-85, eBioscience), and CD16/32 (25-0161-82, eBioscience). Hoechst 33258 (H21491, Invitrogen) was also used, to identify live cells. Cells were sorted on a FacsAria II (Becton Dickinson).
The humerii, tibiae, ilia, femurs, and spine were isolated from actin-GFP mice (000329, Jackson Lab) crushed using a mortar and pestle, washed in phosphate-buffered saline (PBS) without magnesium and calcium (Gibco) with 0.5% fetal bovine serum (FBS) (HyClone) and filtered through a 70-μm filter. Red blood cell lysis was performed with ammonium-chloride/potassium-chloride (ACK) lysing buffer (Lonza), the cells were resuspended in α-MEM (StemCell Technologies), 20% FBS (HyClone) and 1× Pen-Strep (CellGro), plated in 25 ml in 150-cm^2 tissue-culture flasks (three per mouse), and incubated at 33° C. with 5% CO2. After 2-3 days, the medium was replaced with fresh α-MEM with 20% FBS. After 8-14 days, the cells were rinsed, split by trypsinization (CellGro), pooled, filtered through a 70 μm filter, replated at 3-4 million cells per 150-cm^2 tissue-culture flask, and grown at 33° C. with 5% CO2 for 3-4 days until nearly confluent. The cells were trypsinized, filtered, and resuspended in 0.5% FBS in PBS with biotin-conjugated anti-mouse CD105 antibody (eBioscience) for 15-30 minutes at room temperature. The CD105-labeled cells were incubated with Dynabead M-280 streptavidin-linked magnetic beads (Invitrogen) for 15-30 minutes at 4° C. with agitation and isolated using magnetic separation and rinsed once. The CD105^+ cell fraction was replated at 1-2 million cells per 150-cm^2 tissue-culture flask and incubated at 33° C. with 5% CO2 for 2-3 days.
The MSCs were trypsinized, filtered, diluted in phenol-red-free alpha-MEM with 20% FBS, and plated (30 μl for a total of 2000 cells per well) on 384-well clear-bottomed black tissue-culture treated plate (3712, Corning) pretreated with fibronectin (Millipore). Plate covers (VWR) were added, the plates were spun and at 500 with slow braking, and the cells were incubated at room temperature for 60-90 minutes before incubation at 33° C. with 5% CO2 for 3 days prior to hematopoietic cell plating. […]

normal HSPCs = test: Normal HSPC coculture on primary MSC stroma; settings: Mus musculus
Protocol: The material was cleaned, crushed and sequentially passed through 100 and 70 μM filters (Falcon). […] The biotin-labeled cells were spun down, resuspended in 0.5% FBS in PBS, and incubated for 15-30 minutes at 4° C. with agitation with 1 mL of Dynabead M-280 streptavidin-linked magnetic beads per 4 mice. The bead-linked cells were depleted using magnetic separation and rinsed once. The lineage- and CD48-depleted cell fraction was labeled with streptavidin-APC-Cy7 antibody from BD Biosciences and c-kit-APC, Sca-1-FITC, CD48-Pacific Blue, and CD150 PE-Cy7 antibodies from eBioscience. DsRed-positive lineage-Sca-1+c-kit+CD48− HSCs were sorted using a FACS DiVa or FACS ARIA (BD Biosciences).
A total of 20 μL of 20 μg/mL fibronectin (Millipore) in PBS was added to each well of a 384-well clear-bottomed black tissue-culture treated plate (Corning) and incubated for 30-120 minutes at 33° C. or 37° C. […] The fibronectin solution was removed from each well using a 24-channel wand aspirator; then 30 μL of BMSC solution was added to plate 2000 BMSCs/well. […] Each plate was covered with a sterile rayon breathable membrane (VWR) and plastic lid, and then spun at 500 rpm (approximately 60× gravity) with slow braking. The plates were incubated at room temperature for 60-90 minutes before incubation at 33° C. with 5% CO2 for 3 days prior to HSC addition.
The sorted HSCs, SLAMs and progenitor cells were resuspended in phenol-red free alpha-MEM with 20% FBS and diluted to 10,000 cells/mL. A total of 20 μL of cell solution containing 200 hematopoietic cells was added to each well using a multichannel pipettor or liquid-dispensing system. Each plate was covered with a sterile rayon breathable membrane (VWR) and plastic lid, and then spun at 500 rpm (approximately 60×gravity) with slow braking. The plates were incubated at room temperature for 60-90 minutes before incubation at 33° C. with 5% CO2 overnight prior to compound or cytokine addition.
Image analysis was performed using MetaXpress software from MDC and CellProfiler software from the Broad Institute of Harvard and MIT.
Compound addition and incubation was performed as described for the LSC coculture screen above, but without a media change or readdition of the compound.
The selected set was screened in 8-point dose against both normal HSPCs with a high number of replicates (6) and LSC-enriched leukemia cells, each cocultured on primary MSCs.

[3] = test system: human AML cell lines (U937, THP-1, NOMO-1, SKM-1, NB4, and OCI-AML3); test: AML cell line screen (CellTiter-Glo); type: cell-based; settings: for IC50: Homo sapiens, AML cell line screens, read-out: IC50s across 6 cell lines
Protocol: Nomo-1, THP-1, SKM-1, NB4, and U937 cell lines were grown in RPMI (12-702F, BioWhittaker), 10% FBS (10082-147, Gibco), and 1% Pen-Strep (15140-122, Gibco) and OCI-AML3 was grown in α-MEM (36453, Stem Cell Technologies), 10% FBS (10082-147, Gibco), and 1% Pen-Strep (15140-122, Gibco). 3000 cells were plated in each well in 30 μl in white, 384 well plates (3570, Corning) and 16 hours later 100 nl of the appropriate compound was added to each well. 72 hours later the plates were cooled to room temperature and 30 μl of CellTiterGlo reagent (G7570, Promega) diluted 1:1 in PBS was added to each well and the plates were analyzed using an Envision (Perkin Elmer).
First, a traditional small molecule screen was performed on six human AML cell lines (U937, THP-1, NOMO-1, SKM-1, NB4, and OCI-AML3), two of which (NOMO-1, THP-1) contain the same oncogene (MLL-AF9) used to generate the primary leukemia cells utilized in our coculture system. The cell lines were grown in isolation under standard conditions, treated with the 160 compounds at 8-point dose, and three days later the viability of each well was quantified using CellTiter-Glo reagent. The IC50s from these AML cell line screens were then compared to the IC50s from the coculture screens. […] As discussed, the existence of such differentially-active compounds is consistent with our hypothesis that coculturing can expand the pool of therapeutically promising compounds identified in high throughput format.

[4] = test system: CD34+ cells from primary human leukemia samples; test: Human CD34+ CAFC assay, leukemia samples; type: cell-based; settings: 1.25 μM to 10 μM, 18 hours exposure, read at 5 weeks (2 weeks FLT3-ITD)
Protocol: Samples were centrifuged over Ficoll-Paque PLUS (GE Heathcare) step gradient (2000×g for 30 min in 50 ml tubes) to obtain mononuclear cells and then CD34^+ cells were selected with immunomagnetic beads (MACS Cell Separation, Miltenyi Biotec, Auburn, Calif.), except in one case, NPM1 mutation, which was CD34^− by flow cytometry and mononuclear cells were used. 50,000 cells were placed into 12.5 cm^2 flasks (Becton Dickinson Labware, Franklin Lakes, N.J.) in co-culture with the MS-5 mouse bone marrow-derived stromal cell line (kindly provided by Dr. Itoh, Dept. of Biology, Niigata University, Japan) and DMSO control and the number of final cobblestones was later read. The number of cells needed to form one cobblestone was then placed in triplicate for each sample with each drug at serial drug dilutions from 10 μM to 0.63 μM as well as with DMSO 0.5% for control purposes and incubated overnight with Iscove's modified Dulbecco's medium (IMDM, in house media preparation laboratory)+20% fetal calf serum (FCS, Atlanta Biologicals, Lawrenceville, Ga.) with glutamine (2 mM/ml, in house media preparation laboratory), monothioglycerol (MTG, 10 nM/ml, Sigma Cell Culture, St. Louis Mo.), c-Kit ligand (20 ng/ml, Amgen, Thousand Oaks, Calif.), Flt ligand (20 ng/ml, Imclone, Bridgewater, N.J.), TPO (20 ng/ml, Amgen) and IL-3 (20 ng/ml, Amgen). Cells were then washed to remove the drugs and placed into 96 well cell culture plates (Becton Dickinson) with α-MEM (in house media preparation laboratory)+12.5% FCS+12.5% horse serum (Gemini Bio-products, West Sacramento, Calif.) with glutamine, MTG, hydrocortisone (1 nM/ml, Sigma) and IL-3 in co-culture with MS-5 stromal cells. […] The same procedure was followed with normal CD34+ cells obtained from cord blood.
(§1) The cells were treated with compound or DMSO carrier control at four doses (ranging from 1.25 μM to 10 μM) in triplicate for 18 hours, washed thoroughly, then plated onto human stromal MS-5 monolayers (Itoh, K., Tezuka, H., Sakoda, H., Konno, M., Nagata, K., Uchiyama, T., Uchino, H., and Mori, K. J. (1989). Exp Hematol 17, 145-153.) and maintained in coculture with one subsequent half media change. After 5 weeks (2 weeks for the FLT3-ITD sample (Moore, M. A., Dorn, D. C., Schuring a, J. J., Chung, K. Y., and Morrone, G. (2007). Exp Hematol 35, 105-116.)), cobblestone formation was determined, and dose-response curves against the 7 cell types were generated for each compound.

[5] = test system: primary CD34+ cells from normal human cord blood; test: Human CD34+ CAFC assay, normal cells; settings: 1.25 μM to 10 μM, 18 hours exposure
Protocol: Samples were centrifuged over Ficoll-Paque PLUS (GE Heathcare) step gradient (2000×g for 30 min in 50 ml tubes) to obtain mononuclear cells and then CD34^+ cells were selected with immunomagnetic beads (MACS Cell Separation, Miltenyi Biotec, Auburn, Calif.), except in one case, NPM1 mutation, which was CD34^− by flow cytometry and mononuclear cells were used. 50,000 cells were placed into 12.5 cm^2 flasks (Becton Dickinson Labware, Franklin Lakes, N.J.) in co-culture with the MS-5 mouse bone marrow-derived stromal cell line (kindly provided by Dr. Itoh, Dept. of Biology, Niigata University, Japan) and DMSO control and the number of final cobblestones was later read. The number of cells needed to form one cobblestone was then placed in triplicate for each sample with each drug at serial drug dilutions from 10 μM to 0.63 μM as well as with DMSO 0.5% for control purposes and incubated overnight with Iscove's modified Dulbecco's medium (IMDM, in house media preparation laboratory)+20% fetal calf serum (FCS, Atlanta Biologicals, Lawrenceville, Ga.) with glutamine (2 mM/ml, in house media preparation laboratory), monothioglycerol (MTG, 10 nM/ml, Sigma Cell Culture, St. Louis Mo.), c-Kit ligand (20 ng/ml, Amgen, Thousand Oaks, Calif.), Flt ligand (20 ng/ml, Imclone, Bridgewater, N.J.), TPO (20 ng/ml, Amgen) and IL-3 (20 ng/ml, Amgen). […]
as §1

[6] = test system: primary leukemia cocultures; test: Mevalonolactone rescue experiment; type: cell-based, murine; settings: 2 mM mevalanolactone with 1 μM lovastatin, 5 days
Protocol: Primary leukemia cocultures were plated as described, and treated with 2 mM mevalanolactone and/or 1 μM lovastatin as shown, for 5 days. Total leukemia cells were counted using MetaXpress software from MDC. Carriers were controlled for across all treatments. The viability of the stroma was assessed using stromal monolayers grown alone and treated in parallel, with the same readout described in the stromal toxicity screen here.

Row | IC50 ([2]; MLL-AF9, LSCs on primary MSC stroma, 8-point dose, read-out: Leukemia IC50) | Compound | hit in primary screen [1] | hit in primary screen ([1]; listed as L-744832) | leukemia-selective activity in coculture vs normal HSPCs [2] | IC50 (normal HSPCs; read-out: Normal IC50, HSPCs on primary MSC stroma, 8-point dose) | activity against AML cell lines [3] | IC50 [3] | leukemia cobblestone inhibition (human CAFC) [4] | toxicity against normal primary CD34+ cells (human CAFC) [5] | IC50 ([2]; MLL-AF9, read-out: Leukemia IC50) | IC50 (normal HSPCs; read-out: Normal IC50) | rescue of anti-leukemia effect of lovastatic acid [6]
1 | – | CC[C@H](C)[C@@H](COC(Cc1ccccc1)C(=O)N[C@@H](CCS(C)(=O)=O)C(=O)OC(C)C)NC[C@@H](N)CS (stereo partly drawn) [L-744, 832] | independently scored | independently hit | – | – | – | – | – | – | – | – | –
2 | 466 nM | COC(=O)Nc1nc2cc(SC(C)C)ccc2[nH]1 [Methiazole] | – | – | leukemia-selective activity | > 20000 nM | strong activity | < 625 nM | leukemia cobblestone inhibition was observed across all six primary leukemia samples | neither compound showed toxicity | – | – | –
3 | – | CCCCc1ccc2[nH]c(NC(=O)OC)nc2c1 [Parbendazole] | – | – | leukemia-selective activity | – | strong activity | < 625 nM | leukemia cobblestone inhibition was observed across all six primary leukemia samples | neither compound showed toxicity | 76 nM | > 20000 nM | –
4 | – | C[C@@]1(O)CCOC(=O)C1 [mevalonolactone] | – | – | – | – | – | – | – | – | – | – | rescues the anti-leukemia effect of lovastatin; also recorded: rescued the anti-leukemia effects of lovastatic acid
